The record followed here is publication PMC5983452 (PLoS ONE, 2018).

A short description of data set [1]: in vitro. Format: in vitro ADME, SD rats. The note with it: male, Sprague-Dawley.
Data set [2] relates to panel of 140 cell lines grown in matrigel. Description: cells. To be noted: read-out: growth effects in panel of 140 cell lines grown in matrigel (none observed up to).
The nature of data set [3]: in vitro. The class given is in vitro ADME, CD-1 mice. The note with it: male, CD-1, mouse, microsomes, pH 7.4.
Data set [4] can be described thus: Hepatocyte stability, rat. Format: in vitro ADME, SD rats.
A short description of data set [5]: in vitro. The note with it: human.
Description: (§1) Caco-2 permeability. Caco-2 cells (obtained from the ATCC), between passage numbers 40 to 60, were seeded onto Millipore
(§2) Multiscreen plates at 1x10^5 cells/cm2 in Dulbecco's Modified Eagle Medium. Media was changed every two or three days. On
(§3) Day 20, the permeability study was performed using Hanks Balanced Salt Solution (HBSS) pH 7.4 buffer with 25 mM HEPES and
(§4) Incubations were carried out in an atmosphere of 5% CO2 with a relative humidity of
(§5) The monolayers were prepared by rinsing both basolateral and apical surfaces twice with HBSS at 37°C. Cells were
(§6) then incubated with HBSS in both apical and basolateral compartments for 40 min to stabilize physiological parameters. HBSS
(§7) was then removed from the apical or basolateral compartment and replaced with 10 µM test compound dosing solutions (1% final
(§8) DMSO). The pH of supplemented HBSS was 6.5 and 7.5 in the apical and basolateral compartments, respectively. The apical
(§9) compartment inserts were then placed into ‘companion’ plates containing fresh HBSS.
(§10) removed and apical and basolateral samples diluted for analysis by LC-MS/MS. Permeability was assessed in duplicate, on two
(§11) different occasions. On each plate atenolol and propanolol were run as controls. Compounds were quantified by LC-MS/MS analysis using a 5 point calibration curve. The starting concentration (C0) was determined from the dosing solution and
(§12) experimental recovery calculated from C0 and both apical and basolateral compartment concentrations. The permeability coefficient
(§13) (Papp) for each compound was calculated as: (dQ/dt)/(C0xA), where dQ/dt is the rate of permeation of the drug across the cells, C0
(§14) is the donor compartment concentration at time zero and A is the area of the cell monolayer.
(§15) Plasma protein binding. Plasma protein binding was assessed by equilibrium dialysis utilizing the HT-dialysis cell format with a
(§16) cellulose semi-permeable membrane (molecular weight cut-off of 5000 Da). Solutions of test compounds (1 µM, 0.5% final
(§17) DMSO concentration) were prepared in isotonic phosphate buffer (pH 7.4) and 100% pooled male CD-1 mouse plasma. The
(§18) buffer solution was added to one side of the membrane and the plasma solution to the other side. Incubations were performed in
(§19) Haloperidol was incubated in parallel as the control compound for each species. At the end of the incubation time, samples were taken from both sides of the membrane.
(§20) Following protein precipitation, the samples were analyzed by LC-MS/MS using two sets of calibration standards for protein free
(§21) (7 points) and protein containing solutions (6 points). Samples were quantified using standard curves prepared in the equivalent
(§22) matrix. The fraction unbound in plasma (fu) was calculated using the following equation:
(§23) Where, PC = sample concentration in protein containing side, PF = sample concentration in protein free side, and VCorrection =
(§24) correction factor for the volume shift i.e. ratio of the volume of the protein after dialysis to that before dialysis.
The nature of data set [6]: in vitro. The note with it: male, CD-1, mouse, plasma, pH 7.4.
Description: as §1, §2, §3, §4, §5
(§25) then incubated with HBSS in both apical and basolateral compartments for 40 min to stabilize physiological parameters. HBSS […]
as §10
(§26) different occasions. […] Compounds were quantified by LC-MS/MS analysis using a 5 point calibration curve. The starting concentration (C0) was determined from the dosing solution and
(§27) experimental recovery calculated from C0 and both apical and basolateral compartment concentrations. […]
(§28) (Papp) for each compound was calculated as: (dQ/dt)/(C0xA), where dQ/dt is the rate of permeation of the drug across the cells, C0 […]
(§29) Plasma protein binding. Plasma protein binding was assessed by equilibrium dialysis utilizing the HT-dialysis cell format with a […]
Data set [7] in a line: Monkey (NHP) pharmacokinetic study. Format: in vivo, male cynomolgus monkeys. The note with it: cynomolgus monkey, male Cynomolgus. As to the method:
2. […] Food was returned 4 hours after dosing. […] 4. […] Food was returned 4 hours after dosing. […] Supplemental Results:SMYD2 compound characterization […] The […] nM (Figure S8A).

Data set [8] is classed as in vitro ADME. To be noted: plasma. As to the method:
After stirred for 30 min at 25 °C, NaBH3CN […]
mixture was concentrated under vacuum. […] The combined organic […]
The crude product was further
The fractions containing product were combined and concentrated. […]
cyclopropylisoxazole-3-carboxamide hydrochloride as a light yellow solid.
Media was changed every two or three days. On
95% at 37°C. […] Cells were
At 120 min the companion plate was
Permeability was assessed in duplicate, on two […]
different occasions. […] Compounds were quantified by LC-MS/MS analysis using a 5 point calibration curve.
The permeability coefficient
Solutions of test compounds (1 µM, 0.5% final
Incubations were performed in
Haloperidol was incubated in parallel as the control compound for each species.
(7 points) and protein containing solutions (6 points).
Liver microsome (LM) stability. […]
the reaction. The final incubation volume was 50 µL. Negative control incubations were included where phosphate buffer was […]
min. The negative controls were incubated for 45 min only. […]
µL methanol at the appropriate time points.
Subsequently, intrinsic CL (CLint) was […]

A short description of data set [9]: in vitro. The class given is in vitro ADME, cyno-monkeys. To be noted: male, monkey, microsomes, pH 7.4.
In the next data set the target is SMYD2 (Homo sapiens, UniProt Q9NRG4). Briefly: SPR binding assay EPZ033294/SMYD2 (SensiQ). Set-up: Full length FLAG-SMYD2 and C-terminally Avi-tagged full length SMYD2 (SMYD2-Avi) were cloned into pFastbac vectors; FLAG (N); His tag with TEV cleavage site (N, cleaved yes); made in house; host or cells: Sf9 insect cells (baculovirus). To be noted: 15°C, 10 µM SAM in running buffer; read-out: dissociation constant (KD) by SPR. As to the method:
The running buffer contained 25 mM Tris-HCl pH 8.0, 150 mM NaCl, 5 mM DTT, 10 µM ZnCl2, 0.05% Tween-20, 10 µM SAM, and 2% DMSO. Avi-tagged biotinylated SMYD2 was immobilized on a neutravidin-coupled BioCap chip up to 6000 RU. Streptavidin on the reference cell was blocked with biocytin. […] Dissociation time was 1000 sec. Analysis of double-referenced data was performed using the 1:1 binding model in QDAT data analysis tool (SensiQ Technologies Inc.).

For a further data set, the target named is T1, SMYD3 (Homo sapiens, UniProt Q9H7B4).
T1 sequence (Q9H7B4 1-428): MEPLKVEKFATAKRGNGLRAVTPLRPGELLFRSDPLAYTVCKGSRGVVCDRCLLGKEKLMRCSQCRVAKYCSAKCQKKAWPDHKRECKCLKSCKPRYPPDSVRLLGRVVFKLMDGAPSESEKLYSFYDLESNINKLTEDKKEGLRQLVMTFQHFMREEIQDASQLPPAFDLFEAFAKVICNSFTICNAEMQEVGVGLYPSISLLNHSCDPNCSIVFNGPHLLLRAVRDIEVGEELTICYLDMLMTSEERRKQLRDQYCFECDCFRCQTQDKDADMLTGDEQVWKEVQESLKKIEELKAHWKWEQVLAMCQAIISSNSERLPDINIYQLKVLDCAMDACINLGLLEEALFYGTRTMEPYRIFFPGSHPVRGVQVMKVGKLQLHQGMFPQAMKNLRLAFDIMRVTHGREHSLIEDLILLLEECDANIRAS
Description: SMYD3 biochemical methylation assay (3H-SAM, GST-MAP3K2/MEKK2 substrate). The arrangement: Protein purification of both isoforms of full length SMYD3 was performed as previously reported; made in house. To be noted: tested in duplicate; read-out: selectivity panel result, SMYD3 (off-target). As to the method: SMYD3 assays were performed as previously described using N-terminally GST-tagged MAP3K2 protein substrate. […] Reactions were conducted at room temperature with enzyme and inhibitor incubated for 30 minutes before initiating the reaction with substrates. Dose-response curves were tested in duplicate in each experiment. […] Quenched reactions were transferred to a streptavidin-coated flashplate (Perkin Elmer) for capture of the biotinylated peptide. After 2 h incubation at room temperature, the flashplate was washed once with 0.1% Tween-20 and read on a Perkin Elmer Topcount NXT plate reader. Substrate apparent KM values were determined by measuring the initial velocities (v0) in duplicate while varying one substrate at fixed concentration of the second substrate.
Mechanism of inhibition was determined by measuring the inhibitor IC50 values while varying the concentration of one substrate at a fixed concentration of the second substrate equal to its KM value.

In the next data set the test system is Caco-2 cells. Description: Caco-2 permeability.
The next data set in a line: Caco-2 permeability. The note with it: human, 10 µM. (In general: Passage across Caco-2 layers is used to estimate intestinal permeability.)
The nature of data set [10]: Plasma protein binding (equilibrium dialysis), mouse. The note with it: male, CD-1, mouse, pH 7.4. On the technique in general: In equilibrium dialysis free small molecules cross a membrane that holds back macromolecules.
Description: as §1, §2, §3, §4, §5, §25, §10, §26, §27, §28, §29

Counter-ions that a name gives are not always drawn.

Chain of SMYD2 (Q9NRG4 whole entry): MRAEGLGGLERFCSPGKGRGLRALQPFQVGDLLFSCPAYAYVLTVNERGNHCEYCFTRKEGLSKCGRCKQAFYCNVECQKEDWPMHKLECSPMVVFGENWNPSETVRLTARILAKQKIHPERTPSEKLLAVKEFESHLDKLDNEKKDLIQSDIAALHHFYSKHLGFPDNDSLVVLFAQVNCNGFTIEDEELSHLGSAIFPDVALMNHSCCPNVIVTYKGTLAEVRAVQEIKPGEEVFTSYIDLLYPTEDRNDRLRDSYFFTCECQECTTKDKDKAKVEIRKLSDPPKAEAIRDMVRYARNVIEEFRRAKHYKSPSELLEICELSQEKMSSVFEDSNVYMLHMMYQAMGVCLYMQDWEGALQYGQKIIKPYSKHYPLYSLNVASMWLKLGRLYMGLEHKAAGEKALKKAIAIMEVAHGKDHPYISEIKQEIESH
Description for Caco-2 cells: as §1, §2, §3, §4, §5, §6, §7, §8, §9, §10, §11, §12, §13, §14, §15, §16, §17, §18, §19, §20, §21, §22, §23, §24

What is called microsomal CLint is the capacity of the preparation to metabolise the compound, expressed as a volume cleared per time. By Papp A→B is commonly meant the apparent permeability from the apical to the basolateral side of a cell layer. For orientation: Papp B→A means how fast a substance crosses the layer from the basolateral side. As usually defined, the fraction unbound is free concentration divided by total concentration. One may read the MRT as the average time that molecules of a dose stay in the body. As a reminder, the bioavailability is the share of a dose that reaches the circulation, judged against a reference dose that is usually intravenous. The term half-life denotes how long it takes for the measured level to halve. One may read the Tmax as the time at which the peak concentration occurs. For the molecule `NC1CCC(S(=O)(=O)N2C3CCC2CC(NC(=O)c2cc(C4CC4)on2)C3)CC1` [EPZ028862, N-((1R,3R,5S)-8-((1r,4R)-4-aminocyclohexylsulfonyl)-8-aza-bicyclo[3.2.1]octan-3-yl)-5-cyclopropylisoxazole-3-carboxamide hydrochloride], in “in vitro [1]” (1 µM, pH 7.4), the “CLint measured with liver microsomes, Rat” value is 3.4 µL/min/mg microsomal protein. For the same molecule, the intrinsic clearance (microsomal CLint) at 1 µM in the data set “in vitro [1]” (rat, microsomes, pH 7.4, CLint measured with liver microsomes) was < 3 µL/min/mg. The IC50 in data set [2] is > 25 µM. The same molecule returned a microsomal CLint at 1 µM in the data set “in vitro [3]” of 3.3 µL/min/mg. Besides, the “CLint measured with hepatocytes, Rat” value in data set [4] (1 µM) was 3.5 µL/min/106 cells. In addition, in [4] (male, Sprague-Dawley, rat, cryopreserved hepatocytes, read-out: CLint measured with hepatocytes, Rat), the hepatocyte CLint at 1 µM worked out at 5.2 µL/min/1e6 cells. In the data set “in vitro [5]” (Caco-2, Papp,AB), this molecule had a Papp A→B at 120 min, 10 µM of 4.6 nm/s. The Papp B→A at 120 min, 10 µM in the data set “in vitro [5]” (Caco-2, Papp,BA) is 164 nm/s. For the same molecule, the fraction unbound at 16 h, 1 µM in the data set “in vitro [6]” is 0.51. In [7] (plasma, IV 1 mg/kg, PO 5 mg/kg), this molecule gave an MRT of 7.4 ± 1.5 h, a bioavailability of 62 ± 13% and a half-life of 5.6 ± 1.3 h. In addition, the clearance in data set [7] (plasma, IV 1 mg/kg, read-out: CLp) was 1.28 ± 0.204 L/h/kg. Further, the Vd in [7] (plasma, IV 1 mg/kg, read-out: Vss) was found to be 9.5 ± 2.5 L/kg. For the same molecule, the Tmax in [7] (plasma, PO 5 mg/kg) is 2 h. Also, in data set [7] (urine and plasma, IV 1 mg/kg), the CL renal was determined as 0.0636 ± 0.0504 L/h/kg. Besides, the “Monkey fu (unbound fraction)” value in [8] is given as “highly bound”. In the data set “in vitro [9]”, this molecule returned a microsomal CLint at 1 µM of 3.2 µL/min/mg.
Usually Kd stands for the equilibrium constant for the complex coming apart. Consider `O=C(NC1CN(Cc2cnn(Cc3ccc(Cl)cc3)c2)C1)c1cn(C2CC2)nn1` [EPZ033294], for which the Kd at SMYD2 came out at 0.005 µM. The IC50 at SMYD3 was > 10 µM. Also, the “Caco-2 assay outcome in words” value in the data set with Caco-2 cells is “both permeable and an efflux substrate”. For the same molecule, the Papp A→B at 120 min, 10 µM in “Caco-2 permeability” (Caco-2, Papp,AB, apical pH 6.5 / basolateral pH 7.5, 120 min) turned out to be 21.8 nm/s. Moreover, the Papp B→A at 120 min, 10 µM in the data set “Caco-2 permeability” (Caco-2, Papp,BA, 120 min) was found to be 643 nm/s. The same molecule displayed a fraction unbound at 16 h, 1 µM in data set [10] of 0.26.
